# Data from ChEMBL document CHEMBL1201862, “PubChem BioAssay data set” (2004).
# Activity calls are given as the source filed them.
# Columns and labels:
# HEK293 [1] = assay: cells; conditions: Homo sapiens
# [2] = molecular target: T1, Microphthalmia-associated transcription factor (Homo sapiens, UniProt O75030); assay: TRPM1 promoter luciferase signal decrease, dose response, MITF inhibitor project, cell-based, SK-MEL-5, cherry-picked, set 3 (AID 493073); type: functional
# T1 sequence (O75030 whole entry): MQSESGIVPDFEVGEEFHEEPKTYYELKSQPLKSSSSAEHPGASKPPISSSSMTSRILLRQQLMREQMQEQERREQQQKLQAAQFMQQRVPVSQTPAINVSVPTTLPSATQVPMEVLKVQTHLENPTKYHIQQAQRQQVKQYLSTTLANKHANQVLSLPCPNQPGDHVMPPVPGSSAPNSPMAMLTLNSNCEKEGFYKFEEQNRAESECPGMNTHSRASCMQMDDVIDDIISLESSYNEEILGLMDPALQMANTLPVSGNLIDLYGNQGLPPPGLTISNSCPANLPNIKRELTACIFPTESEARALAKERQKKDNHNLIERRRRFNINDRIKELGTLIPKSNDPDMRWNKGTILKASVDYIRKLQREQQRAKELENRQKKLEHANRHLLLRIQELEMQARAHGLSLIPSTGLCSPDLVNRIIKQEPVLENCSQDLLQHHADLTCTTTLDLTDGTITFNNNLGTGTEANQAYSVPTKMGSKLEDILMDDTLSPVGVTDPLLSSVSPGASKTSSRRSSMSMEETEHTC
# [3] = HepG2 cell cytotoxicity, dose response, cytotoxicity control, ATP luminescence, cherry-pick, activator set 2 (AID 1053143); type: functional, cell-based
# [4] = molecular target: T2, Replicative DNA helicase DnaB (Mycobacterium tuberculosis, UniProt P9WMR3); assay: DnaB intein splicing inhibitors, dose response, biochemical, cell-free fluorescence (AID 449749); type: functional
# T2 sequence (P9WMR3 whole entry): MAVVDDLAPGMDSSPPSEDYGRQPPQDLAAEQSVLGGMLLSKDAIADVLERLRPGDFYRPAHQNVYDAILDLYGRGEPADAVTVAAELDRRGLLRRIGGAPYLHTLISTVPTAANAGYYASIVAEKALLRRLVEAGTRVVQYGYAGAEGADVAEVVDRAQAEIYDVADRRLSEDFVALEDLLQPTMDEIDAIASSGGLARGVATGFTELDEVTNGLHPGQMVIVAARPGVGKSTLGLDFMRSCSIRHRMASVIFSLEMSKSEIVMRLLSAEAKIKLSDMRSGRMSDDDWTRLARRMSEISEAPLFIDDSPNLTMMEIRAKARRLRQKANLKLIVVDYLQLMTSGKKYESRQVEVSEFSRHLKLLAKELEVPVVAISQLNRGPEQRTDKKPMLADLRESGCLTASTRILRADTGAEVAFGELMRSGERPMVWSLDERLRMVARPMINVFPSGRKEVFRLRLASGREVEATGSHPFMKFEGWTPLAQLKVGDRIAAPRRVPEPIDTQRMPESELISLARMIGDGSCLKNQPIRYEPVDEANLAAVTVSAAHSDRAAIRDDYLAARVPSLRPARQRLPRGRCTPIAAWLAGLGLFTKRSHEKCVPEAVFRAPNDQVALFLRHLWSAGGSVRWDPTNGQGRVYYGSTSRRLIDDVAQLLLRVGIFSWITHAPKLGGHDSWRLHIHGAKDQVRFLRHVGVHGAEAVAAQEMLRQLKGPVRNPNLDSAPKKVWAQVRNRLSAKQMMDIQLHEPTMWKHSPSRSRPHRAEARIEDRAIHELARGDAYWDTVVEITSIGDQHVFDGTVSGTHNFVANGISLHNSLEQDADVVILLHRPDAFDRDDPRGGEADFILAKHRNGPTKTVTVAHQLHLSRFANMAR
# HEK293 [5] = assay: cells; conditions: Homo sapiens; remark: listed apart in the source
# Protein RecA = molecular target: T3, Protein RecA (Mycobacterium tuberculosis, UniProt P9WHJ3); assay: Fluorescence Cell-Free Homogeneous Dose Retest to Identify Inhibitors of RecA-Intein Splicing Activity. [Related pubchem assays (depositor defined):AID2097, AID2223, AID489010, AID492950]; type: functional
# T3 sequence (P9WHJ3 whole entry): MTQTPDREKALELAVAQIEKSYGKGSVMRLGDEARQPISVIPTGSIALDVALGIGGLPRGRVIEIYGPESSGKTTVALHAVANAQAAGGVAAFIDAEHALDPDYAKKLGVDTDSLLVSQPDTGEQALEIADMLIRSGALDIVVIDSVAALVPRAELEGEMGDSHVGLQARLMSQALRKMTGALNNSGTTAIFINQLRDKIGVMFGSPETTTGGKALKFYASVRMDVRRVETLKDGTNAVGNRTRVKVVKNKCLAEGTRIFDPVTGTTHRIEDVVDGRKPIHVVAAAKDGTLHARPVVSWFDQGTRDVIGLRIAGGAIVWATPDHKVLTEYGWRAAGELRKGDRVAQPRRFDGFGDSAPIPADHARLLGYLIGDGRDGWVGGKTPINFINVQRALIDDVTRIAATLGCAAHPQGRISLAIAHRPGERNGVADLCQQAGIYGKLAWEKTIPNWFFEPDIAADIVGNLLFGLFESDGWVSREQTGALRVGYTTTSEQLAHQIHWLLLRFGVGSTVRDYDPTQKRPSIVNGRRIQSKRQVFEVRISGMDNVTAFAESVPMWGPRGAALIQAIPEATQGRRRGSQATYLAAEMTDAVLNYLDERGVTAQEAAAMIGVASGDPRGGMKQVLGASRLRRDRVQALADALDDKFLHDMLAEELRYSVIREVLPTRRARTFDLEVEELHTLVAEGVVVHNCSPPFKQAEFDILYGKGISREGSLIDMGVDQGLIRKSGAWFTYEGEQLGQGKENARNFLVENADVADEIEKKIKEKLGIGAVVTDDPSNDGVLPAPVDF
# [6] = molecular target: Beta-2 adrenergic receptor (Homo sapiens, UniProt P07550); assay: beta2AR agonists driving receptor internalization, dose response, cell-based, FAP fluorogen, flow cytometry, cherry pick 1 (AID 588763); type: functional
# [7] = molecular target: DNA dC->dU-editing enzyme APOBEC-3G (Homo sapiens, UniProt Q9HC16); type: functional;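 note: Dose-response counterscreen measuring inhibition of APOBEC3G DNA deaminase activity, run while confirming APOBEC3A inhibitors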
# [8] = molecular target: DNA dC->dU-editing enzyme APOBEC-3A (Homo sapiens, UniProt P31941); assay: Dose Response confirmation of small molecule APOBEC3A DNA Deaminase Inhibitors via a fluorescence-based single-stranded DNA deaminase assay. [Related pubchem assays (depositor defined):AID493011, AID493024]; type: functional
# Trypsin = Trypsin (Sus scrofa, UniProt P00761); assay: porcine trypsin inhibitors, dose response, selectivity assay for Rce1 protease inhibitor project, biochemical, quenched peptide fluorescence, cherry-pick (AID 488789)
# CAAX prenyl protease 2 [9] = molecular target: T4, CAAX prenyl protease 2 (Homo sapiens, UniProt Q9Y256); assay: human Rce1 protease inhibitors, dose response, biochemical, yeast membranes, quenched-peptide fluorescence, cherry-pick (AID 588849)
# T4 sequence (Q9Y256 whole entry): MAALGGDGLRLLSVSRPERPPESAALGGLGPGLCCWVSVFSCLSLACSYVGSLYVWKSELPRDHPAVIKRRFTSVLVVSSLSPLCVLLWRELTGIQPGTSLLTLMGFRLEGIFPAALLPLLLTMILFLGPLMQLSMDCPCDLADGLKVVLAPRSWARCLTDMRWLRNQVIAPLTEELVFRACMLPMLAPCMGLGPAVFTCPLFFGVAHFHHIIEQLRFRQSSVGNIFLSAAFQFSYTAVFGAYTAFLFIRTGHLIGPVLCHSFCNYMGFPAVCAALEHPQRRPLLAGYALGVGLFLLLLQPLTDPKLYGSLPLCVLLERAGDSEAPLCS
# CAAX prenyl protease 2 [10] = molecular target: T5, CAAX prenyl protease 2 (Saccharomyces cerevisiae S288c, UniProt Q03530); type: biochemical
# T5 sequence (Q03530 whole entry): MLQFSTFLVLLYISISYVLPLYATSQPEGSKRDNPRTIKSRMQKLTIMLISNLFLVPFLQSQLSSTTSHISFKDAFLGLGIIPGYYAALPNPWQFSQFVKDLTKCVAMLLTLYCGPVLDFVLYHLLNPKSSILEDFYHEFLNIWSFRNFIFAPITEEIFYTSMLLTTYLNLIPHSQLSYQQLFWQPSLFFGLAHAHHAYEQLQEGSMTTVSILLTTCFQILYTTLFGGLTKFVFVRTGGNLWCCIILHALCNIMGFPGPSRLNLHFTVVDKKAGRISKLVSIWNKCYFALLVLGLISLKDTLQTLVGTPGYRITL
# cells = type: functional
# Escherichia coli = assay: microbe, parasite or virus in culture
# [11] = Vero E6 cell cytotoxicity, dose response, cytotoxicity control for non-replicating M. tuberculosis project, secondary assay (AID 492998); type: functional, VeroE6; conditions: Vero C1008
# [12] = THP-1 cell cytotoxicity, dose response, cytotoxicity control for non-replicating M. tuberculosis project (AID 489025); type: functional
# [13] = cytotoxicity toward NIH3T3 fibroblasts, dose response, counter-screen, cell-based, ATP luminescence, mouse fibroblasts (AID 2010); type: functional;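 note: cells exposed to compound for about 90 hours before reading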
# [14] = inhibitors of intracellular T. cruzi replication, confirmation, NIH3T3 host cells, beta-gal luminescence (AID 2044); type: functional, cell-based;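 note: intracellular parasites grown in NIH/3T3 mouse fibroblasts as host cells; luminescent beta-galactosidase reporter signal from transgenic T. cruzi replicating inside host cells; inhibitors lower the luminescence signal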
# [15] = tested on: Streptococcus sp. 'group A'; assay: growth inhibition of control SK(-) GAS strain, dose response, counter-screen for streptokinase expression inhibitor project, luminescence, kanamycin, BacTiterGlo, confirmation (AID 1900); type: functional, organism-based
# Streptococcus = assay: Group A Streptococcus viability loss, dose response, counter-screen for streptokinase expression inhibitor project, luminescence, BacTiterGlo (AID 1915); type: functional, organism-based;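 note: potency for reduction of bacterial viability or growth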
# [16] = molecular target: T6, Heat shock factor protein 1 (Mus musculus, UniProt P38532); assay: HSF1 potentiators in luciferase reporter cells, confirmation, cell-based, NIH3T3, luminescence, dose retest (AID 435004); type: functional;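 note: stress induced by proteasome inhibitor MG132 added 30 min after compound; luciferase reporter driven by HSF1 response element in NIH3T3 cells; actives raise luminescence as potentiators of the MG132 stress response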
# T6 sequence (P38532 whole entry): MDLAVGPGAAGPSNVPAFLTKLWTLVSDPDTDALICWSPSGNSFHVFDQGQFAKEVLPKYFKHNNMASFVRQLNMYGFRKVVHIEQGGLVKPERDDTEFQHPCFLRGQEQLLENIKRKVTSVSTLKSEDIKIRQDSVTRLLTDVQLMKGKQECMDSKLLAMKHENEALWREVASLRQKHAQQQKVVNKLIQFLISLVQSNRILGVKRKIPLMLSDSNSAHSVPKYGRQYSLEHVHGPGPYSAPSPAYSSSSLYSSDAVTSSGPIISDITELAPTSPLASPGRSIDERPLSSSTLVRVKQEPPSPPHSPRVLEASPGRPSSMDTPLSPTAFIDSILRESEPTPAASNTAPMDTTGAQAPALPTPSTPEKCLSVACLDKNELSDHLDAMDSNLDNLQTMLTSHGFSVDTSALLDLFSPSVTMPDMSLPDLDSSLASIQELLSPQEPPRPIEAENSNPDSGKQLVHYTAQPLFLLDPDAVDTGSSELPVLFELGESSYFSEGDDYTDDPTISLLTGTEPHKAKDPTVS
# [17] = microbe, parasite or virus in culture; type: functional; conditions: Mycobacterium tuberculosis
# A-375 = assay: MITF: Counter assay: A375 proliferation Measured in Cell-Based System Using Plate Reader - 2084-03_Inhibitor_Dose_DryPowder_Activity. [Related pubchem assays (depositor defined):AID488944]; type: functional; conditions: Homo sapiens
# [18] = HepG2 cell cytotoxicity, dose response, cytotoxicity control for non-replicating M. tuberculosis project (AID 489018); type: functional; conditions: Mycobacterium tuberculosis
# Beta-2 adrenergic receptor, sequence (P07550 whole entry): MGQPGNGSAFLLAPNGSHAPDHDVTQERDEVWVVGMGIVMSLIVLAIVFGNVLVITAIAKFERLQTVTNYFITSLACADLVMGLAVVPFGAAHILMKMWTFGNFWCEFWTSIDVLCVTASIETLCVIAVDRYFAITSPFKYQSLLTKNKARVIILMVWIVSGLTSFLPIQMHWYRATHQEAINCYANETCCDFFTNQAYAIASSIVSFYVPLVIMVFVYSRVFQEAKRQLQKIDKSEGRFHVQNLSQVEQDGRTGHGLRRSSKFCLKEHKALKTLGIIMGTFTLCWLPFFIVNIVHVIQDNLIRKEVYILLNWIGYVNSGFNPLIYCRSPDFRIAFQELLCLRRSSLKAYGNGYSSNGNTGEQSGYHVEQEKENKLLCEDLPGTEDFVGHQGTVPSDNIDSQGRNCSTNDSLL
# Trypsin, sequence (P00761 whole entry): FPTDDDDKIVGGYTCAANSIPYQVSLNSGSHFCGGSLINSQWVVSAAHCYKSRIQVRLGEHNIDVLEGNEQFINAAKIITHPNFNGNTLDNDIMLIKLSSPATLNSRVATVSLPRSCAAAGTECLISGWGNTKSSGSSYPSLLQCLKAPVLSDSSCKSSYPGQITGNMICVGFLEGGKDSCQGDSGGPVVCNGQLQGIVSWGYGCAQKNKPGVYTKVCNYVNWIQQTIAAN
# DNA dC->dU-editing enzyme APOBEC-3A, sequence (P31941 whole entry): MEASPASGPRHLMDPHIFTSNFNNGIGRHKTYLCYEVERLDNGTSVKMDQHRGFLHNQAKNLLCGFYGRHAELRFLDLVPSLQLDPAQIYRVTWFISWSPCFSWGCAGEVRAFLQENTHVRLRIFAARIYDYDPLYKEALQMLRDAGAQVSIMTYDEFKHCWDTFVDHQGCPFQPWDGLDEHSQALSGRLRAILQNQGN
# DNA dC->dU-editing enzyme APOBEC-3G, sequence (Q9HC16 whole entry): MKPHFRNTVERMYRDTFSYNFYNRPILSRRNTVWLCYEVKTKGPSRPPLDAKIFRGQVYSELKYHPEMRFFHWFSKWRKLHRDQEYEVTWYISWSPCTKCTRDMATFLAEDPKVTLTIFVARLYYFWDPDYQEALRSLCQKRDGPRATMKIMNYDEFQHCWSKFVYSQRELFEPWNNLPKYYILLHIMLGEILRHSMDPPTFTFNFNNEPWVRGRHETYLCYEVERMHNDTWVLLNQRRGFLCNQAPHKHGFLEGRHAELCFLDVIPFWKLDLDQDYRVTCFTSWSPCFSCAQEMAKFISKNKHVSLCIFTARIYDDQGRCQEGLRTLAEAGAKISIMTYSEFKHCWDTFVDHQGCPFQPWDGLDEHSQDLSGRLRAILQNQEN
compound,measurement,setting,value
COc1ccccc1NC(=O)c1cnc(SCC(=O)NCC2CCCO2)n(C)c1=O (stereo not given),EC50,HEK293 [1],> 59.6 µM (inactive)
same,AC50,[2],8.88 µM (active)
same,AC50,[3],42.4 µM (active)
same,AC50,[4],9.19 µM (active)
same,EC50,HEK293 [5],> 59.6 µM (inactive)
same,EC50,Protein RecA,10.8 µM (active)
CCn1c(SCC(=O)N2CCCC2)nnc1-c1ccc(N)cc1,EC50,[6],2.07 µM (active)
same,IC50,[7],2.75 µM (active)
same,IC50,[8],2.31 µM (active)
NC(=O)N1N=C2/C(=C/c3ccccc3)CCCC2C1c1ccccc1 (stereo not given),AC50,Trypsin,10.8 µM (active)
same,AC50,CAAX prenyl protease 2 [9],12.1 µM (active)
same,AC50,CAAX prenyl protease 2 [10],9.14 µM (active)
O=C(Nc1ccccc1F)c1ccc([N+](=O)[O-])s1,IC50,cells,4.91 µM (active)
same,AC50,Escherichia coli,27.5 µM (active)
same,CC50,[11],> 20 µM (active)
same,CC50,[12],28.8 µM (active)
same,EC50,[13],> 30 µM (not active)
same,EC50,[14],0.614 µM (active)
CC(C)OC(=O)c1c(N)n(CCCN2CCOCC2)c2nc3ccccc3nc12,AC50,Trypsin,6.98 µM (active)
same,AC50,CAAX prenyl protease 2 [9],4.27 µM (active)
same,AC50,CAAX prenyl protease 2 [10],11.9 µM (active)
CO[C@H]1C=CO[C@@]2(C)Oc3c(C)c(O)c4c(O)c(c(C=NN5CCN(C)CC5)c(O)c4c3C2=O)NC(=O)C(C)=CC=C[C@H](C)[C@H](O)[C@@H](C)[C@@H](O)[C@@H](C)[C@H](OC(C)=O)[C@@H]1C,AC50,Escherichia coli,14.8 µM (active)
same,EC50,[15],< 0.06 µM (active)
same,EC50,Streptococcus,< 0.06 µM (active)
COC(=O)c1cc([N+](=O)[O-])c(-n2cncn2)c([N+](=O)[O-])c1,EC50,[6],19 µM (inactive)
CC(C)(C)c1ccc(Cn2c(=N)n(CC(O)c3ccco3)c3ccccc32)cc1 (stereo not given),EC50,[16],> 260 µM (inactive)
same,CC50,[17],11.9 µM (active)
same,IC50,cells,22 µM (active)
same,AC50,[2],11.8 µM (active)
same,CC50,[11],15.7 µM (active)
same,CC50,[12],9.05 µM (active)
same,EC50,[13],> 60 µM (not active)
same,EC50,[14],2.12 µM (active)
same,AC50,A-375,18.6 µM (active)
same,CC50,[18],9.26 µM (active)
